The supplement of paper PMC10307832

Tests used:
Experiment in all cases: relative viability (nuclei count vs DMSO), 5 days (fraction); higher = more cells survive
R406 + Alpelisib = compound: COc1cc(Nc2ncc(F)c(Nc3ccc4c(n3)NC(=O)C(C)(C)O4)n2)cc(OC)c1OC [R406] + Cc1nc(NC(=O)N2CCC[C@H]2C(N)=O)sc1-c1ccnc(C(C)(C)C(F)(F)F)c1 [Alpelisib] (partner 2 µM)
In short: (§1)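 Medians of duplicate plates are given as relative viability. That measure is the nuclei count in treated wells divided by the count in vehicle wells. Counts were taken on 4× images of lung cancer cell lines in 1536-well plates, 5 days after pin-tool dosing the day after seeding with one drug alone or a fixed anchor-drug dose plus five library-drug doses (not always all listed) in √10 steps.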

R406 + Dasatinib = compound: COc1cc(Nc2ncc(F)c(Nc3ccc4c(n3)NC(=O)C(C)(C)O4)n2)cc(OC)c1OC [R406] + Cc1nc(Nc2ncc(C(=O)Nc3c(C)cccc3Cl)s2)cc(N2CCN(CCO)CC2)n1 [Dasatinib] (partner 0.075 µM)
In short: as §1

Daporinad + Foretinib = compound: O=C(/C=C/c1cccnc1)NCCCCC1CCN(C(=O)c2ccccc2)CC1 [Daporinad] + COc1cc2c(Oc3ccc(NC(=O)C4(C(=O)Nc5ccc(F)cc5)CC4)cc3F)ccnc2cc1OCCCN1CCOCC1 [Foretinib] (partner 0.25 µM)
In short: as §1

Daporinad + Crizotinib = compound: O=C(/C=C/c1cccnc1)NCCCCC1CCN(C(=O)c2ccccc2)CC1 [Daporinad] + C[C@@H](Oc1cc(-c2cnn(C3CCNCC3)c2)cnc1N)c1c(Cl)ccc(F)c1Cl [Crizotinib] (partner 1 µM)
In short: as §1

SK-LU-1
relative viability (R406 + Alpelisib; first compound 0.08 µM): 1.01
relative viability (R406 + Alpelisib; first compound 0.253 µM): 0.849
relative viability (R406 + Alpelisib; first compound 0.8 µM): 1.05
relative viability (R406 + Alpelisib; first compound 2.53 µM): 0.368
relative viability (R406 + Alpelisib; first compound 8 µM): 0.203
relative viability (R406 + Dasatinib; first compound 0.08 µM): 0.164
relative viability (R406 + Dasatinib; first compound 0.253 µM): 0.174
relative viability (R406 + Dasatinib; first compound 0.8 µM): 0.186
relative viability (R406 + Dasatinib; first compound 2.53 µM): 0.0685
relative viability (R406 + Dasatinib; first compound 8 µM): 0.0703
relative viability (Daporinad + Foretinib; first compound 0.0005 µM): 0.908
relative viability (Daporinad + Foretinib; first compound 0.001581 µM): 0.872
relative viability (Daporinad + Foretinib; first compound 0.005 µM): 0.922
relative viability (Daporinad + Foretinib; first compound 0.01581 µM): 0.829
relative viability (Daporinad + Crizotinib; first compound 0.0005 µM): 0.942
relative viability (Daporinad + Crizotinib; first compound 0.001581 µM): 0.958
relative viability (Daporinad + Crizotinib; first compound 0.005 µM): 1.18
relative viability (Daporinad + Crizotinib; first compound 0.01581 µM): 0.892

SK-MES-1
relative viability (R406 + Alpelisib; first compound 0.08 µM): 0.749
relative viability (R406 + Alpelisib; first compound 0.253 µM): 0.964
relative viability (R406 + Alpelisib; first compound 0.8 µM): 0.957
relative viability (R406 + Alpelisib; first compound 2.53 µM): 0.414
relative viability (R406 + Alpelisib; first compound 8 µM): 0.406
relative viability (R406 + Dasatinib; first compound 0.08 µM): 0.397
relative viability (R406 + Dasatinib; first compound 0.253 µM): 0.371
relative viability (R406 + Dasatinib; first compound 0.8 µM): 0.363
relative viability (R406 + Dasatinib; first compound 2.53 µM): 0.137
relative viability (R406 + Dasatinib; first compound 8 µM): 0.136
relative viability (Daporinad + Foretinib; first compound 0.0005 µM): 0.837
relative viability (Daporinad + Foretinib; first compound 0.001581 µM): 1.19
relative viability (Daporinad + Foretinib; first compound 0.005 µM): 0.916
relative viability (Daporinad + Foretinib; first compound 0.01581 µM): 1.21
relative viability (Daporinad + Crizotinib; first compound 0.0005 µM): 0.959
relative viability (Daporinad + Crizotinib; first compound 0.001581 µM): 1.01
relative viability (Daporinad + Crizotinib; first compound 0.005 µM): 1.12
relative viability (Daporinad + Crizotinib; first compound 0.01581 µM): 0.9

SW 1573
relative viability (R406 + Alpelisib; first compound 0.08 µM): 0.753
relative viability (R406 + Alpelisib; first compound 0.253 µM): 1.02
relative viability (R406 + Alpelisib; first compound 0.8 µM): 0.739
relative viability (R406 + Alpelisib; first compound 2.53 µM): 0.673
relative viability (R406 + Alpelisib; first compound 8 µM): 0.494
relative viability (R406 + Dasatinib; first compound 0.08 µM): 0.492
relative viability (R406 + Dasatinib; first compound 0.253 µM): 0.539
relative viability (R406 + Dasatinib; first compound 0.8 µM): 0.602
relative viability (R406 + Dasatinib; first compound 2.53 µM): 0.366
relative viability (R406 + Dasatinib; first compound 8 µM): 0.149
relative viability (Daporinad + Foretinib; first compound 0.0005 µM): 0.962
relative viability (Daporinad + Foretinib; first compound 0.001581 µM): 0.701
relative viability (Daporinad + Foretinib; first compound 0.005 µM): 1.06
relative viability (Daporinad + Foretinib; first compound 0.01581 µM): 0.744
relative viability (Daporinad + Crizotinib; first compound 0.0005 µM): 0.834
relative viability (Daporinad + Crizotinib; first compound 0.001581 µM): 0.831
relative viability (Daporinad + Crizotinib; first compound 0.005 µM): 0.728
relative viability (Daporinad + Crizotinib; first compound 0.01581 µM): 0.479
